Measurements: ChEMBL document CHEMBL1909046, “DrugMatrix in vitro pharmacology data”

What was measured:
[1] = DRUGMATRIX: Glutamate, AMPA radioligand binding (ligand: [3H] AMPA); format: cell membranes, Rattus norvegicus, Wistar, Cerebral cortex, Membrane; settings: Not Active = under 50% inhibition at 10 µM
[2] = target: T1, Muscarinic acetylcholine receptor M5 (Homo sapiens, UniProt P08912); format: cell membranes, CHO-K1, Membrane; settings: cho-k1; also: in other assays of this panel Not Active means under 50% inhibition at 10 µM
T1 sequence (P08912 whole entry): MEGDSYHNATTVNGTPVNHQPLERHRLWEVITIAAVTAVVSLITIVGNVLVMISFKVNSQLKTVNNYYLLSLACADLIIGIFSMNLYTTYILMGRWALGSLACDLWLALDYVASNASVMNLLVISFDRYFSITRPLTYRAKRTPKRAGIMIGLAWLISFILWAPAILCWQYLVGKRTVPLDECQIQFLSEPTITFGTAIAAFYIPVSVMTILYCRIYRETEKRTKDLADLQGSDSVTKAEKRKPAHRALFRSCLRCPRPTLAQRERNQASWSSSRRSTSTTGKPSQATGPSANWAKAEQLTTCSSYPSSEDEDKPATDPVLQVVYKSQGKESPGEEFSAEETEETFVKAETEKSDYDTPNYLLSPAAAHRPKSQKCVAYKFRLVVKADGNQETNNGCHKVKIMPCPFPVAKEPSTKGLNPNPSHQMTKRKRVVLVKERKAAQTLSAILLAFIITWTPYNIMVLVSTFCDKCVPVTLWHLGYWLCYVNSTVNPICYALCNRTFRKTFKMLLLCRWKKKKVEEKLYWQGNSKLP

[3] = target: Sigma non-opioid intracellular receptor 1 (Homo sapiens, UniProt Q99720); assay: DRUGMATRIX: Sigma1 radioligand binding (ligand: [3H] Haloperidol); format: cell membranes, Jurkat, Membrane; settings: jurkat; Not Active = under 50% inhibition at 10 µM
Sequence of Sigma non-opioid intracellular receptor 1 (Q99720 whole entry): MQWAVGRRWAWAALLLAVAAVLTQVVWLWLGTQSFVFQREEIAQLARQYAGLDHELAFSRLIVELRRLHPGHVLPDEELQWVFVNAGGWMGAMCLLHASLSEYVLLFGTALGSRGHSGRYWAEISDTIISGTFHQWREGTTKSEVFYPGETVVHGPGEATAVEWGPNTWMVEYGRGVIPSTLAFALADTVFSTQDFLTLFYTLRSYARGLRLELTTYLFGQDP

[4] = DRUGMATRIX: Potassium Channel [KATP] radioligand binding (ligand: [3H] Glyburide); format: cell membranes, Membrane; settings: hit-t15; Not Active = under 50% inhibition at 10 µM
[5] = DRUGMATRIX: Platelet-Derived Growth Factor (PDGF) radioligand binding (ligand: [125I] PDGF); format: cell-based; settings: nih3t3; Not Active = under 50% inhibition at 10 µM
[6] = target: T2, Endothelin-1 receptor (Homo sapiens, UniProt P25101); format: cell membranes, Membrane; settings: cho-k1; also: in other assays of this panel Not Active means under 50% inhibition at 10 µM
T2 sequence (P25101 whole entry): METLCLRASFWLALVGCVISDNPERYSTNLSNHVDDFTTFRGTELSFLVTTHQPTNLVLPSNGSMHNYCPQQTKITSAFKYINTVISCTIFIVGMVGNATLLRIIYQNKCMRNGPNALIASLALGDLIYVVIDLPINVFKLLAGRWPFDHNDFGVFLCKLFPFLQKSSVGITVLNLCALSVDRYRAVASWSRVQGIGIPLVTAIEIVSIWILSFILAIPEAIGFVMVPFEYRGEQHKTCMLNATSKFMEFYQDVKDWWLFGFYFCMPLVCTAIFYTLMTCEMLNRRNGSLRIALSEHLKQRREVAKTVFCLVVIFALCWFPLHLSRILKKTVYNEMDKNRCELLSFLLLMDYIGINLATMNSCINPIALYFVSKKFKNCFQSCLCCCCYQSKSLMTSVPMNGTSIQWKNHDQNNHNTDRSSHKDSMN

Oc1ccccc1 [PHENOL]
Not Active: IC50 [1] | Ki [1] | IC50 [2] | IC50 [3] | IC50 [4] | Ki [4] | IC50 [5] | Ki [5] | IC50 [6]

Nc1nc(F)nc2c1ncn2[C@@H]1O[C@H](CO)[C@@H](O)[C@@H]1O [FLUDARABINE]
Not Active: IC50 [1] | Ki [1] | IC50 [2] | IC50 [3] | IC50 [4] | Ki [4] | IC50 [5] | Ki [5] | IC50 [6]

O=C1CN(/N=C/c2ccc([N+](=O)[O-])o2)C(=O)N1 [NITROFURANTOIN]
Not Active: IC50 [1] | Ki [1] | IC50 [2] | IC50 [3] | IC50 [4] | Ki [4] | IC50 [5] | Ki [5] | IC50 [6]

CC12CCC(CC1=O)C2(C)C (centres undefined) [CAMPHOR]
Not Active: IC50 [1] | Ki [1] | IC50 [2] | IC50 [3] | IC50 [4] | Ki [4] | IC50 [5] | Ki [5] | IC50 [6]

Nc1nc(N)c2nc(CNc3ccc(C(=O)N[C@@H](CCC(=O)O)C(=O)O)cc3)cnc2n1 [AMINOPTERIN]
Not Active: IC50 [1] | Ki [1] | IC50 [2] | IC50 [3] | IC50 [4] | Ki [4] | IC50 [5] | Ki [5] | IC50 [6]

Cc1c(N)nc([C@H](CC(N)=O)NC[C@H](N)C(N)=O)nc1C(=O)N[C@H](C(=O)N[C@H](C)[C@@H](O)[C@H](C)C(=O)N[C@H](C(=O)NCCc1nc(-c2nc(C(=O)NCCC[S+](C)C)cs2)cs1)[C@@H](C)O)[C@@H](O[C@@H]1O[C@@H](CO)[C@@H](O)[C@H](O)[C@@H]1O[C@H]1O[C@H](CO)[C@@H](O)[C@H](OC(N)=O)[C@@H]1O)c1c[nH]cn1.[Br-] [BLEOMYCIN A2]
Not Active: IC50 [1] | Ki [1] | IC50 [2] | IC50 [3] | IC50 [4] | Ki [4] | IC50 [5] | Ki [5] | IC50 [6]

OC[C@H]1O[C@@H]2O[C@H]3[C@H](O)[C@@H](O)[C@@H](O[C@H]4[C@H](O)[C@@H](O)[C@@H](O[C@H]5[C@H](O)[C@@H](O)[C@@H](O[C@H]6[C@H](O)[C@@H](O)[C@@H](O[C@H]7[C@H](O)[C@@H](O)[C@@H](O[C@H]1[C@H](O)[C@H]2O)O[C@@H]7CO)O[C@@H]6CO)O[C@@H]5CO)O[C@@H]4CO)O[C@@H]3CO [ALFADEX]
Not Active: IC50 [1] | Ki [1] | IC50 [2] | IC50 [3] | IC50 [4] | Ki [4] | IC50 [5] | Ki [5] | IC50 [6]

O=C(O)CNCP(=O)(O)O [GLYPHOSATE]
Not Active: IC50 [1] | Ki [1] | IC50 [2] | IC50 [3] | IC50 [4] | Ki [4] | IC50 [5] | Ki [5] | IC50 [6]

O=C(Nc1ccc(Cl)c(Cl)c1)c1cc(Cl)cc(Cl)c1O [3,3',4',5-TETRACHLOROSALICYLANILIDE]
Not Active: IC50 [1] | Ki [1] | IC50 [2] | IC50 [3] | IC50 [4] | Ki [4] | IC50 [5] | Ki [5] | IC50 [6]

COC(=O)Nc1nc2ccc(Sc3ccccc3)cc2[nH]1 [FENBENDAZOLE]
Not Active: IC50 [1] | Ki [1] | IC50 [2] | IC50 [3] | IC50 [4] | Ki [4] | IC50 [5] | Ki [5] | IC50 [6]

Nc1ccc(C(=O)O)c(O)c1 [AMINOSALICYLIC ACID]
Not Active: IC50 [1] | Ki [1] | IC50 [2] | IC50 [3] | IC50 [4] | Ki [4] | IC50 [5] | Ki [5] | IC50 [6]

COC(=O)C[C@](O)(CCC(C)(C)O)C(=O)O[C@@H]1C(OC)=C[C@]23CCCN2CCc2cc4c(cc2[C@H]13)OCO4 [HARRINGTONINE]
Not Active: IC50 [1] | Ki [1] | IC50 [2] | IC50 [3] | IC50 [4] | Ki [4] | IC50 [5] | Ki [5] | IC50 [6]

COc1cc(NC(C)CCCN)c2ncccc2c1 (centres undefined) [PRIMAQUINE]
Not Active: IC50 [1] | Ki [1] | IC50 [2] | IC50 [3] | IC50 [4] | Ki [4] | IC50 [5] | Ki [5] | IC50 [6]

OC[C@H]1O[C@@H]2O[C@H]3[C@H](O)[C@@H](O)[C@@H](O[C@H]4[C@H](O)[C@@H](O)[C@@H](O[C@H]5[C@H](O)[C@@H](O)[C@@H](O[C@H]6[C@H](O)[C@@H](O)[C@@H](O[C@H]7[C@H](O)[C@@H](O)[C@@H](O[C@H]8[C@H](O)[C@@H](O)[C@@H](O[C@H]1[C@H](O)[C@H]2O)O[C@@H]8CO)O[C@@H]7CO)O[C@@H]6CO)O[C@@H]5CO)O[C@@H]4CO)O[C@@H]3CO [BETADEX]
Not Active: IC50 [1] | Ki [1] | IC50 [2] | IC50 [3] | IC50 [4] | Ki [4] | IC50 [5] | Ki [5] | IC50 [6]

COc1cc([C@@H]2c3cc4c(cc3[C@H](O)[C@H]3COC(=O)[C@H]23)OCO4)cc(OC)c1OC [PODOFILOX]
Not Active: IC50 [1] | Ki [1] | IC50 [2] | IC50 [3] | IC50 [4] | Ki [4] | IC50 [5] | Ki [5] | IC50 [6]

C[C@H]1C[C@H]2[C@@H]3CCC4=CC(=O)C=C[C@]4(C)[C@@]3(F)[C@@H](O)C[C@]2(C)[C@@]1(O)C(=O)CO [BETAMETHASONE]
Not Active: IC50 [1] | Ki [1] | IC50 [2] | IC50 [3] | IC50 [4] | Ki [4] | IC50 [5] | Ki [5] | IC50 [6]
